Patent US10987359B2, “Oxadiazepinone derivatives and methods of treating hepatitis B infections” (priority 2016, dated 2021)

These compounds were tested on HBV (assay: HBV replication inhibition assay (BDNA assay) in HepG2.2.15 cells). Settings: Hepatitis B virus, HepG2.2.15, HBV replication assay (BDNA assay), HepG2.2.15 cells; read-out: DNA EC50.
Assay type: cell-based
In short: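 HepG2.2.15 cells with stably integrated HBV were treated with serially diluted compounds at 0.5% DMSO for 6 days, with medium and compound refreshed at day 3. Encapsidated HBV DNA from DNase-treated supernatant was quantified by branched DNA assay. EC50 came from % inhibition versus DMSO, fitted non-linearly.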

`CC1Cn2nc3c(c2C(=O)N(C)O1)CN(C(=O)Nc1cccc(Cl)c1)CC3` (stereo not drawn) [Compound 063, N-(3-chlorophenyl)-2,4-dimethyl-1-oxo-1,4,5,8,9,11-hexahydropyrido[4′,3′:3,4]pyrazole [5,1-d][1,2,5]oxadiazepine-10(2H)-carboxamide] and `CN1OC(C(N)=O)Cn2nc3c(c2C1=O)CN(C(=O)Nc1ccc(F)c(Cl)c1)CC3` (stereo not drawn) [Compound 072, N10-(3-chloro-4-fluoro-phenyl)-2-methyl-1-oxo-5,8,9,11-tetrahydro-4H-pyrido[2,3]pyrazolo[2,4-d][1,2,5]oxadiazepine-4,10-dicarboxamide] fall in the same range of EC50: 1 to 100 nM for the first, 1 to 100 nM for the second.

`CN1OC(C)(C)Cn2nc3c(c2C1=O)CN(C(=O)Nc1ccc(F)c(Cl)c1)CC3` [Compound 064, N-(3-chloro-4-fluoro-phenyl)-2,4,4-trimethyl-1-oxo-5,8,9,11-tetrahydro pyrido[2,3]pyrazolo[2,4-d][1,2,5]oxadiazepine-10-carboxamide] and `CN1OCCn2nc3c(c2C1=O)CN(C(=O)Nc1ccc(F)c(Cl)c1)CC3` [Compound 066, N-(3-chloro-4-fluoro-phenyl)-2-methyl-1-oxo-5,8,9,11-tetrahydro-4H-pyrido[2,3]pyrazolo[2,4-c][1,2,5]oxadiazepine-10-carboxamide] fall in the same range of EC50: 1 to 100 nM for the first, 1 to 100 nM for the second.

Compared with `COCC1Cn2nc3c(c2C(=O)N(C)O1)CN(C(=O)Nc1ccc(F)c(Cl)c1)CC3` (stereo not drawn) [Compound 065, N-(3-chloro-4-fluoro-phenyl)-4-(methoxymethyl)-2-methyl-1-oxo-5,8,9,11-tetrahydro-4H-pyrido[2,3]pyrazolo[2,4-d][1,2,5]oxadiazepine-10-carboxamide], `COC(=O)C1Cn2nc3c(c2C(=O)N(C)O1)CN(C(=O)Nc1ccc(F)c(Cl)c1)CC3` (stereo not drawn) [Compound 071, methyl 10-[(3-chloro-4-fluoro-phenyl)carbamoyl]-2-methyl-1-oxo-5,8,9,11-tetrahydro-4H-pyrido[2,3]pyrazolo[2,4-d][1,2,5]oxadiazepine-4-carboxylate] is higher in EC50: 1 to 100 nM for the first, over 1000 nM for the second. The first is the more potent here.

`C=CCN1OCCn2nc3c(c2C1=O)CN(C(=O)Nc1ccc(F)c(Cl)c1)CC3` [Compound 067, 2-allyl-N-(3-chloro-4-fluoro-phenyl)-1-oxo-5,8,9,11-tetrahydro-4H-pyrido[2,3]pyrazolo[2,4-c][1,2,5]oxadiazepine-10-carboxamide] and `CCCN1OCCn2nc3c(c2C1=O)CN(C(=O)Nc1ccc(F)c(Cl)c1)CC3` [Compound 068, N-(3-chloro-4-fluoro-phenyl)-1-oxo-2-propyl-5,8,9,11-tetrahydro-4H-pyrido[2,3]pyrazolo[2,4-c][1,2,5]oxadiazepine-10-carboxamide] fall in the same range of EC50: 1 to 100 nM for the first, 1 to 100 nM for the second.

`CC1Cc2nn3c(c2CN1C(=O)Nc1cccc(Cl)c1)C(=O)N(C)OC(CO)C3` (stereo not drawn) [Compound 070, N-(3-chlorophenyl)-4-(hydroxymethyl)-2,9-dimethyl-1-oxo-5,8,9,11-tetrahydro-4H-pyrido[2,3]pyrazolo[2,4-d][1,2,5]oxadiazepine-10-carboxamide] and `C[C@@H]1Cc2nn3c(c2CN1C(=O)Nc1ccc(F)c(Cl)c1)C(=O)N(C)OCC3` [Compound 075, (9R)—N-(3-chloro-4-fluoro-phenyl)-2,9-dimethyl-1-oxo-5,8,9,11-tetrahydro-4H-pyrido[2,3]pyrazolo[2,4-c][1,2,5]oxadiazepine-10-carboxamide] fall in the same range of EC50: 1 to 100 nM for the first, 1 to 100 nM for the second.

`CNC(=O)C1Cn2nc3c(c2C(=O)N(C)O1)CN(C(=O)Nc1ccc(F)c(Cl)c1)CC3` (stereo not drawn) [Compound 073, N10-(3-chloro-4-fluoro-phenyl)-N4,2-dimethyl-1-oxo-5,8,9,11-tetrahydro-4H-pyrido[2,3]pyrazolo[2,4-d][1,2,5]oxadiazepine-4,10-dicarboxamide] and `CN(C)C(=O)C1Cn2nc3c(c2C(=O)N(C)O1)CN(C(=O)Nc1ccc(F)c(Cl)c1)CC3` (stereo not drawn) [Compound 074, N10-(3-chloro-4-fluoro-phenyl)-N4,N4,2-trimethyl-1-oxo-5,8,9,11-tetrahydro-4H-pyrido[2,3]pyrazolo[2,4-d][1,2,5]oxadiazepine-4,10-dicarboxamide] fall in the same range of EC50: 1 to 100 nM for the first, 1 to 100 nM for the second.
